The results in this text go back to patent US11807649B2, “Fused tetracyclic quinazoline derivatives as inhibitors of ErbB2” (EnLiven Therapeutics, Inc., priority 2021, dated 2023).

The subject of the assay is Ba/F3 ERBB2 YVMA. The assay can be described thus: Cell viability assay (CellTiter Glo), Ba/F3 cells engineered to express ERBB2 YVMA. The class given is cell-based. Particulars: Mus musculus, BaF3, 72 h, Ba/F3 cells expressing human ERBB2 YVMA mutant; 72 hours; cell viability, CellTiter Glo; read-out: Ba/F3 ERBB2 YVMA, IC50. The procedure: Cells were treated with compounds, and cell viability was measured as a metric of kinase inhibition.
BT-474, A431, MDA-MB-175VII, NCI-H1781, MCF7, and Ba/F3 cell lines were tested. The Ba/F3 cell line is IL-3-dependent mouse cell line derived from the C3H mouse strain. Ba/F3 cell lines were engineered to express human ERBB2 or EGFR kinases, rendering the cells IL-3 independent. The lines were generated via retroviral transduction utilizing a Moloney murine leukemia virus (MMLV) promoter, and constructs are stably integrated into the cell genome. The sequences of the ERBB2 and EGFR genes used were NCBI Reference Sequences NM 004448.3 and NM 005228.3, respectively.
BT-474, A431, MDA-MB-175VII, NCI-H1781 and MCF7 cells were grown in the appropriate growth medium as described in Table B2 below, and harvested at 50-80% confluence. BT-474, A431, MDA-MB-175VII, NCI-H1781 and MCF7 cells were counted and seeded at 2,000 or 1,500 cells per well in 384-well tissue culture plates (see Table B2). Similarly, Ba/F3 cell lines engineered to express EGFR, ERBB2, or ERBB2 mutants were grown, harvested, counted and seeded at 3000 cells per well in 96-well plates. A subset of wells contained media only (low control, “LC”).
Table B1 provides the growth media and number of cells seeded per well for the each cell line.
Compounds were dissolved in DMSO and serially diluted. Serially-diluted compound or a DMSO only control (high control, “HC”) was added to the plated cells in each well. Compounds were tested at concentrations of about 10 μM to 0.51 nM, using three-fold dilutions. The final proportion of DMSO never exceeded 0.1%.
Plates were placed in a 37° C., 5% CO2 incubator for 72 hours. Plates were then removed from the incubator and equilibrated for 15 minutes at room temperature. […] of CellTiter Glo reagent (Promega) was added to measure the relative level of metabolically active cells by quantifying intracellular ATP concentrations. Plates were incubated for 30 minutes at room temperature, and luminescence was measured. Percent viability was normalized to a vehicle control only using the following formula: % viability=100×(Lumsample−LumLC)/(LumHC−LumLC). Graphical curves were fitted using a nonlinear regression model with a sigmoidal dose response.

`CC#CC(=O)N1CCN2C[C@@H]1COc1cc3ncnc(Nc4ccc(Oc5ccn6ncnc6c5)c(C)c4)c3cc12` [Compound 17, 1-((10R)-4-((4-([1,2,4]triazolo[1,5-a]pyridin-7-yloxy)-3-methylphenyl)amino)-7,8,10,11-tetrahydro-9H-6,10-methano[1,4,7]oxadiazonino[3,2-g]quinazolin-9-yl)but-2-yn-1-one]: the IC50 is greater than 500 nM. On to `Cc1cc(Nc2ncnc3cc4c(nc23)N2CCN(C(=O)/C=C/[C@H]3CCCN3C)[C@H](CO4)C2)ccc1Oc1ccn2ncnc2c1` [Compound 27, (E)-1-((10S)-4-((4-([1,2,4]triazolo[1,5-a]pyridin-7-yloxy)-3-methylphenyl)amino)-7,8,10,11-tetrahydro-9H-6,10-methanopyrimido[4′,5′:5,6]pyrido[3,2-b][1,4,7]oxadiazonin-9-yl)-3-((R)-1-methylpyrrolidin-2-yl)prop-2-en-1-one], for which the IC50 was 10.6 nM. With `Cc1cc(Nc2ncnc3cc4c(nc23)N2CCN(C(=O)/C=C/CN(C)C)CC(CO4)C2)ccc1Oc1ccn2ncnc2c1` (stereo not drawn) [Compound 57, (E)-1-(4-((4-([1,2,4]triazolo[1,5-a]pyridin-7-yloxy)-3-methylphenyl)amino)-7,8,11,12-tetrahydro-6,11-methanopyrimido[4′,5′:5,6]pyrido[3,2-b][1,4,7]oxadiazecin-9(10H)-yl)-4-(dimethylamino)but-2-en-1-one], the IC50 was determined as 173 nM.

Turning to `C=C(F)C(=O)N1CCN2C[C@H]1COc1cc3ncnc(Nc4ccc(Oc5ccn6ncnc6c5)c(C)c4)c3nc12` [Compound 23, 1-((10S)-4-((4-([1,2,4]triazolo[1,5-a]pyridin-7-yloxy)-3-methylphenyl)amino)-7,8,10,11-tetrahydro-9H-6,10-methanopyrimido[4′,5′:5,6]pyrido[3,2-b][1,4,7]oxadiazonin-9-yl)-2-fluoroprop-2-en-1-one], the IC50 stood at 222 nM. With `Cc1cc(Nc2ncnc3cc4c(nc23)N2CCN(C(=O)/C=C/[C@@H](C)N(C)C)[C@H](CO4)C2)c(F)cc1Oc1ccn2ncnc2c1` [Compound 50, (4R,E)-1-((10S)-4-((4-([1,2,4]triazolo[1,5-a]pyridin-7-yloxy)-2-fluoro-5-methylphenyl)amino)-7,8,10,11-tetrahydro-9H-6,10-methanopyrimido[4′,5′:5,6]pyrido[3,2-b][1,4,7]oxadiazonin-9-yl)-4-(dimethylamino)pent-2-en-1-one], the IC50 worked out at 62.6 nM. The result for `CC#CC(=O)N1CCN2C[C@H]1COc1cc3ncnc(Nc4ccc(Oc5ccc6c(c5)ncn6C)c(C)c4)c3cc12` [Compound 11] reads 37.7 nM; that for `CN(C)C/C=C/C(=O)N1CCN2C[C@H]1COc1cc3ncnc(Nc4ccc(Oc5ccn6ncnc6c5)cc4F)c3nc12` [Compound 42, (E)-1-((10S)-4-((4-([1,2,4]triazolo[1,5-a]pyridin-7-yloxy)-2-fluorophenyl)amino)-7,8,10,11-tetrahydro-9H-6,10-methanopyrimido[4′,5′:5,6]pyrido[3,2-b][1,4,7]oxadiazonin-9-yl)-4-(dimethylamino)but-2-en-1-one], 10.3 nM; that for `CN(C)C/C=C/C(=O)N1CCN2C[C@H]1COc1cc3ncnc(Nc4ccc(Oc5ccn6ncnc6c5)c(F)c4)c3nc12` [Compound 39, (E)-1-((10S)-4-((4-([1,2,4]triazolo[1,5-a]pyridin-7-yloxy)-3-fluorophenyl)amino)-7,8,10,11-tetrahydro-9H-6,10-methanopyrimido[4′,5′:5,6]pyrido[3,2-b][1,4,7]oxadiazonin-9-yl)-4-(dimethylamino)but-2-en-1-one], 5.54 nM. Regarding `Cc1cc(Nc2ncnc3cc4c(nc23)N2CCN(C(=O)/C=C/[C@@H](C)N(C)C)[C@H](CO4)C2)ccc1Oc1ccn2ncnc2c1` [Compound 29, (4R,E)-1-((10S)-4-((4-([1,2,4]triazolo[1,5-a]pyridin-7-yloxy)-3-methylphenyl)amino)-7,8,10,11-tetrahydro-9H-6,10-methanopyrimido[4′,5′:5,6]pyrido[3,2-b][1,4,7]oxadiazonin-9-yl)-4-(dimethylamino)pent-2-en-1-one], the IC50 is 19.6 nM.
